The structures appear in SMILES notation.

Assay [1] is described as follows: Inhibition of Saccharomyces cerevisiae alpha-glucosidase for 15 mins by multiplate reader method using 0.7 mM p-nitrophenyl-alpha-D-glucopyranoside as substrate.
Assay [2] can be described thus: Competitive inhibition of Saccharomyces cerevisiae alpha-glucosidase by multiplate reader method using p-nitrophenyl-alpha-D-glucopyranoside as substrate.
Assay [3] is described as follows: Mixed inhibition of Saccharomyces cerevisiae alpha-glucosidase by multiplate reader method using p-nitrophenyl-alpha-D-glucopyranoside as substrate.
Assay [4] is described as follows: Non-Competitive inhibition of Saccharomyces cerevisiae alpha-glucosidase by multiplate reader method using p-nitrophenyl-alpha-D-glucopyranoside as substrate.

As usually defined, the IC50 is the concentration that inhibits the measured activity by half. `O=c1[nH]c(-c2ccc(O)c(O)c2)nc2ccccc12`: in assay [1] (read-out: IC50), the IC50 turned out to be 1500 nM. Still for that read-out and setting: as for `CN(C)c1ccc(-c2nc(O)c3ccccc3n2)cc1`, the figure is 2750 nM; as for `O=c1[nH]c(-c2c(Cl)cccc2Cl)nc2ccccc12`, 68100 nM. In the case of `O=c1[nH]c(-c2cc(O)ccc2O)nc2ccccc12`, the IC50 in assay [1] (read-out: IC50) was determined as 2350 nM. The same measure, in the same setting: as for `COc1ccc(O)c(-c2nc3ccccc3c(=O)[nH]2)c1`, the figure is 1150 nM. Usually Ki stands for a measure of affinity in units of concentration, obtained from inhibition or displacement. Low values mean tighter binding, high ones weaker binding. Turning to `COc1ccc(-c2nc(O)c3ccccc3n2)cc1OC`, in assay [1] (read-out: IC50), the IC50 came to 860 nM. In addition, affinity in assay [2] was put at a Ki of 283 nM. As to `COc1ccc(-c2nc3ccccc3c(=O)[nH]2)cc1O`, the IC50 in assay [1] (read-out: IC50) came out at 1900 nM. As for `CCOc1ccccc1-c1nc2ccccc2c(=O)[nH]1`, the IC50 in assay [1] (read-out: IC50) came to 570 nM. The same molecule yielded a Ki in assay [3] of 6600 nM.

Regarding `O=c1[nH]c(-c2cccc(O)c2)nc2ccccc12`, the half-maximal inhibitory concentration (IC50) entry in assay [1] is given as “Not Active”. On to `CCOc1cc(-c2nc3ccccc3c(=O)[nH]2)ccc1O`, for which the IC50 in assay [1] (read-out: IC50) is 300 nM. This molecule also returned an inhibition constant (Ki) in assay [2] of 430 nM.

As for `O=c1[nH]c(-c2ccc(O)cc2)nc2ccccc12`, the IC50 in assay [1] (read-out: IC50) was found to be 10500 nM. Same read-out and setting: as for `O=c1[nH]c(-c2cccc([N+](=O)[O-])c2)nc2ccccc12`, the figure is 18000 nM; as for `O=c1[nH]c(-c2ccccc2O)nc2ccccc12`, 10400 nM; as for `O=c1[nH]c(-c2ccccc2Cl)nc2ccccc12`, 1300 nM. Turning to `O=c1[nH]c(-c2ccc([N+](=O)[O-])cc2)nc2ccccc12`, the figures for the IC50 result in assay [1] and in assay [1] (read-out: IC50) were “Not Active” and 20000 nM, respectively.

As to `O=c1[nH]c(-c2c(O)cccc2Br)nc2ccccc12`, the half-maximal inhibitory concentration (IC50) in assay [1] (read-out: IC50) came out at 9730 nM. Still for that read-out and setting: as for `COc1cccc(-c2nc3ccccc3c(=O)[nH]2)c1O`, the figure is 14600 nM. On the same count and under the same terms, the figure for `O=c1[nH]c(-c2cc(Cl)ccc2Cl)nc2ccccc12` is 16200 nM. Regarding `Cc1ccc(-c2nc3ccccc3c(=O)[nH]2)cc1`, the IC50 in assay [1] (read-out: IC50) was 76000 nM.

Turning to `CCOc1ccc(-c2nc3ccccc3c(=O)[nH]2)cc1`, the concentration for half-maximal inhibition (IC50) in assay [1] (read-out: IC50) stood at 3250 nM. For `COc1ccc(-c2nc(O)c3ccccc3n2)cc1`, the half-inhibitory concentration (IC50) in assay [1] (read-out: IC50) stood at 400 nM. This molecule also displayed a Ki in assay [4] of 250 nM.

Molecule `C[C@H]1O[C@H](O[C@H]2[C@H](O)[C@@H](O)[C@@H](O[C@H]3[C@H](O)[C@@H](O)C(O)O[C@@H]3CO)O[C@@H]2CO)[C@H](O)[C@@H](O)[C@@H]1N[C@H]1C=C(CO)[C@@H](O)[C@H](O)[C@H]1O` (stereo partly drawn) [ACARBOSE] gave a Ki in assay [2] of 736000 nM. As for `COc1cc(-c2nc3ccccc3c(=O)[nH]2)cc(OC)c1OC`, the IC50 in assay [1] (read-out: IC50) turned out to be 118000 nM.

Source of the values: ChEMBL document CHEMBL3627644, “2-Arylquinazolin-4(3H)-ones: A new class of α-glucosidase inhibitors” (Bioorg Med Chem, 2015).
